The values below come from the NIST ThermoML archive (doi:10.1016/j.jct.2013.01.005).

This data set in a line: activity coefficient (dimensionless); of the first substance listed, at infinite dilution; xn = mol fraction of the nth substance listed. The conditions noted are these: 101 kPa, Liquid, Chromatography, x1 = 0.

± gives the expanded uncertainty stated by the source.

`Cc1ccccc1C` [1,2-dimethylbenzene] + CCCCCC[N+]1(C)CCCCC1.O=S(=O)([N-]S(=O)(=O)C(F)(F)F)C(F)(F)F: the activity coefficient reads like this: (308.15 K) 1.04 ± 0.07; (318.15 K) 1.08 ± 0.07; (328.15 K) 1.1 ± 0.07; (338.15 K) 1.13 ± 0.07; (348.15 K) 1.16 ± 0.07; (358.15 K) 1.18 ± 0.08.

`Cc1ccccc1C` [1,2-dimethylbenzene] + CCCCC[N+]1(C)CCCCC1.O=S(=O)([N-]S(=O)(=O)C(F)(F)F)C(F)(F)F: the activity coefficient is, setting by setting: (308.15 K) 1.06 ± 0.07; (318.15 K) 1.14 ± 0.07; (328.15 K) 1.16 ± 0.07; (338.15 K) 1.19 ± 0.08; (348.15 K) 1.24 ± 0.08; (358.15 K) 1.27 ± 0.08.

Take `Cc1cccc(C)c1` [1,3-dimethylbenzene] + CCCCCC[N+]1(C)CCCCC1.O=S(=O)([N-]S(=O)(=O)C(F)(F)F)C(F)(F)F: the activity coefficient is, setting by setting: (308.15 K) 1.14 ± 0.07; (318.15 K) 1.16 ± 0.07; (328.15 K) 1.19 ± 0.08; (338.15 K) 1.23 ± 0.08; (348.15 K) 1.27 ± 0.08; (358.15 K) 1.29 ± 0.08.

On to `Cc1cccc(C)c1` [1,3-dimethylbenzene] + CCCCC[N+]1(C)CCCCC1.O=S(=O)([N-]S(=O)(=O)C(F)(F)F)C(F)(F)F, for which the activity coefficient was determined as 1.15 ± 0.07 (308.15 K); 1.24 ± 0.08 (318.15 K); 1.28 ± 0.08 (328.15 K); 1.31 ± 0.09 (338.15 K); 1.36 ± 0.09 (348.15 K); 1.39 ± 0.09 (358.15 K).

On to `Cc1ccc(C)cc1` [1,4-dimethylbenzene] + CCCCCC[N+]1(C)CCCCC1.O=S(=O)([N-]S(=O)(=O)C(F)(F)F)C(F)(F)F, for which the activity coefficient is, setting by setting: (308.15 K) 1.14 ± 0.07; (318.15 K) 1.17 ± 0.07; (328.15 K) 1.2 ± 0.08; (338.15 K) 1.24 ± 0.08; (348.15 K) 1.28 ± 0.08; (358.15 K) 1.3 ± 0.08.

With `Cc1ccc(C)cc1` [1,4-dimethylbenzene] + CCCCC[N+]1(C)CCCCC1.O=S(=O)([N-]S(=O)(=O)C(F)(F)F)C(F)(F)F, the activity coefficient by setting is: (308.15 K) 1.16 ± 0.07; (318.15 K) 1.24 ± 0.08; (328.15 K) 1.28 ± 0.08; (338.15 K) 1.32 ± 0.09; (348.15 K) 1.37 ± 0.09; (358.15 K) 1.4 ± 0.09.

Regarding `C=CCCCCCCCC` [1-decene] + CCCCCC[N+]1(C)CCCCC1.O=S(=O)([N-]S(=O)(=O)C(F)(F)F)C(F)(F)F, the activity coefficient runs as follows: (308.15 K) 12.3 ± 0.8; (318.15 K) 12.1 ± 0.8; (328.15 K) 12 ± 0.8; (338.15 K) 11.8 ± 0.8; (348.15 K) 11.7 ± 0.8; (358.15 K) 11.5 ± 0.8.

Regarding `C=CCCCCCCCC` [1-decene] + CCCCC[N+]1(C)CCCCC1.O=S(=O)([N-]S(=O)(=O)C(F)(F)F)C(F)(F)F, the activity coefficient (308.15 K) was 17.1 ± 1.2; the activity coefficient (318.15 K) is 16.5 ± 1.1; the activity coefficient (328.15 K) came to 15.9 ± 1.1; the activity coefficient (338.15 K) was 15.5 ± 1.1; the activity coefficient (348.15 K) stood at 15.3 ± 1; the activity coefficient (358.15 K) was 14.6 ± 1.

Regarding `C=CCCCCC` [1-heptene] + CCCCCC[N+]1(C)CCCCC1.O=S(=O)([N-]S(=O)(=O)C(F)(F)F)C(F)(F)F, the activity coefficient reads like this: (308.15 K) 5.89 ± 0.4; (318.15 K) 5.81 ± 0.4; (328.15 K) 5.69 ± 0.39; (338.15 K) 5.59 ± 0.38; (348.15 K) 5.45 ± 0.37; (358.15 K) 5.35 ± 0.36.

Consider `C=CCCCCC` [1-heptene] + CCCCC[N+]1(C)CCCCC1.O=S(=O)([N-]S(=O)(=O)C(F)(F)F)C(F)(F)F, for which the activity coefficient (308.15 K) was determined as 7.42 ± 0.51; the activity coefficient (318.15 K) came out at 7.12 ± 0.49; the activity coefficient (328.15 K) stood at 6.88 ± 0.47; the activity coefficient (338.15 K) turned out to be 6.67 ± 0.45; the activity coefficient (348.15 K) worked out at 6.48 ± 0.44; the activity coefficient (358.15 K) amounted to 6.31 ± 0.43.

`C#CCCCCC` [1-heptyne] + CCCCCC[N+]1(C)CCCCC1.O=S(=O)([N-]S(=O)(=O)C(F)(F)F)C(F)(F)F: the activity coefficient is, setting by setting: (308.15 K) 2.39 ± 0.16; (318.15 K) 2.43 ± 0.17; (328.15 K) 2.46 ± 0.17; (338.15 K) 2.49 ± 0.17; (348.15 K) 2.52 ± 0.17; (358.15 K) 2.55 ± 0.17.

In the case of `C#CCCCCC` [1-heptyne] + CCCCC[N+]1(C)CCCCC1.O=S(=O)([N-]S(=O)(=O)C(F)(F)F)C(F)(F)F, the activity coefficient reads like this: (308.15 K) 2.78 ± 0.19; (318.15 K) 2.81 ± 0.19; (328.15 K) 2.84 ± 0.19; (338.15 K) 2.87 ± 0.2; (348.15 K) 2.91 ± 0.2; (358.15 K) 2.94 ± 0.2.

Consider `C#CCCCC` [1-hexyne] + CCCCCC[N+]1(C)CCCCC1.O=S(=O)([N-]S(=O)(=O)C(F)(F)F)C(F)(F)F, for which the activity coefficient (308.15 K) came to 1.85 ± 0.12; the activity coefficient (318.15 K) was 1.88 ± 0.13; the activity coefficient (328.15 K) is 1.92 ± 0.13; the activity coefficient (338.15 K) worked out at 1.93 ± 0.13; the activity coefficient (348.15 K) amounted to 1.96 ± 0.13; the activity coefficient (358.15 K) was found to be 1.98 ± 0.13.

For `C#CCCCC` [1-hexyne] + CCCCC[N+]1(C)CCCCC1.O=S(=O)([N-]S(=O)(=O)C(F)(F)F)C(F)(F)F, the activity coefficient by setting is: (308.15 K) 2.09 ± 0.14; (318.15 K) 2.12 ± 0.14; (328.15 K) 2.14 ± 0.15; (338.15 K) 2.18 ± 0.15; (348.15 K) 2.22 ± 0.15; (358.15 K) 2.25 ± 0.15.

Consider `C#CCCCCCC` [1-octyne] + CCCCCC[N+]1(C)CCCCC1.O=S(=O)([N-]S(=O)(=O)C(F)(F)F)C(F)(F)F, for which the activity coefficient was found to be 3.1 ± 0.21 (308.15 K); 3.14 ± 0.21 (318.15 K); 3.19 ± 0.22 (328.15 K); 3.21 ± 0.22 (338.15 K); 3.24 ± 0.22 (348.15 K); 3.26 ± 0.22 (358.15 K).

With `C#CCCCCCC` [1-octyne] + CCCCC[N+]1(C)CCCCC1.O=S(=O)([N-]S(=O)(=O)C(F)(F)F)C(F)(F)F, the activity coefficient runs as follows: (308.15 K) 3.71 ± 0.25; (318.15 K) 3.74 ± 0.25; (328.15 K) 3.76 ± 0.26; (338.15 K) 3.79 ± 0.26; (348.15 K) 3.81 ± 0.26; (358.15 K) 3.84 ± 0.26.

As to `C#CCCC` [1-pentyne] + CCCCCC[N+]1(C)CCCCC1.O=S(=O)([N-]S(=O)(=O)C(F)(F)F)C(F)(F)F, the activity coefficient runs as follows: (308.15 K) 1.42 ± 0.09; (318.15 K) 1.45 ± 0.1; (328.15 K) 1.48 ± 0.1; (338.15 K) 1.5 ± 0.1; (348.15 K) 1.53 ± 0.1; (358.15 K) 1.54 ± 0.1.

On to `C#CCCC` [1-pentyne] + CCCCC[N+]1(C)CCCCC1.O=S(=O)([N-]S(=O)(=O)C(F)(F)F)C(F)(F)F, for which the activity coefficient is, setting by setting: (308.15 K) 1.54 ± 0.1; (318.15 K) 1.59 ± 0.11; (328.15 K) 1.62 ± 0.11; (338.15 K) 1.64 ± 0.11; (348.15 K) 1.69 ± 0.11; (358.15 K) 1.73 ± 0.12.

Consider `CC(C)CC(C)(C)C` [2,2,4-trimethylpentane] + CCCCCC[N+]1(C)CCCCC1.O=S(=O)([N-]S(=O)(=O)C(F)(F)F)C(F)(F)F, for which the activity coefficient (308.15 K) worked out at 9.75 ± 0.67; the activity coefficient (318.15 K) stood at 9.59 ± 0.65; the activity coefficient (328.15 K) was 9.2 ± 0.63; the activity coefficient (338.15 K) was 8.95 ± 0.61; the activity coefficient (348.15 K) was found to be 8.59 ± 0.59; the activity coefficient (358.15 K) came to 8.43 ± 0.58.
